According to patent publication US11986450B2, “Methods and compositions for treating infection and inflammation with selenocyanate” (National Jewish Health, priority 2017, dated 2024):

Tests used:
[1] = test system: Pseudomonas aeruginosa (PA01); test: Bacterial viability (CFU) after HOSCN generation; type: cell-based; settings: 2 hrs, about 120 μM/hr
Method: FIGS. 4A-4B. […] Studies were conducted under similar conditions that generated about 120 μM/hr of either HOCl or HOSCN. (FIG. 4A) Human bronchiolar lung cells (16HBE) or (FIG. 4B) Pseudomonas aeruginosa (PA01) were treated for 2 hrs with glucose oxidase (GOX) system (generates H2O2), enzyme alone (MPO or LPO), or full system (enzyme+GOX), or full system with […]. Viability was assessed 24 hrs later by lactate dehydrogenase release for lung cells or determination of colony forming units (CFUs) for bacteria.

P. aeruginosa: AMT0058L = test: Viability after HOSCN exposure; settings: late disease antibiotic-resistant CF isolate
E. coli: AB1157 = test: HOSCN reductase activity

## N#CSO [HOSCN, hypothiocyanite]
[1]
  Bacterial viability (CFU): killing bacteria
P. aeruginosa: AMT0058L
  Viability (%): 0.7 ± 0.4%
E. coli: AB1157
  Apparent Vmax (HOSCN reductase activity): ND^c (No activity detected. Limit of detection = 0.5 nmol mg^−1 min^−1)
